Source: patent US20250257086A1, “EGFR DEGRADATION AGENT” (Beijing Tide Pharmaceutical Co., Ltd., priority 2022, published 2025)

target: Ba/F3 (EGFR^L858R/T790M/C797S) cells (Homo sapiens, UniProt P00533, T790M/C797S/L858R, cells depend on it); test: Antiproliferative activity on Ba/F3 (EGFR L858R/T790M/C797S) cells (CTG); type: cell-based; settings: 72h incubation, CTG luminescence, read-out: IC50 (nM), antiproliferative activity
Experimental: 30 nL of the compound dilution was added to a 384-well plate by Echo (Labcyte, Echo550).
The percent inhibition rate (% inhibition) was calculated by the following formula
[formula] • LUMcmpd: Luminescence value of assay compound. • LUMpositive: Average LUM value of positive drug with a concentration of 10 μM. • LUMvehicle: Average LUM value of negative control group without drug treatment.
The nonlinear regression curve (dose response-variable slope) between the value of inhibition rate (%) and the logarithm of compound concentration was fitted with graphpad prism 8.0, the effect dose curve of compound was drawn, and the IC50 value was calculated.
Y=Bottom+(Top−Bottom)/(1+10^((Log IC50−X)*HillSlope)) • X-axis: logarithm of compound concentration; Y axis: inhibition rate (% inhibition).

Ba/F3 (EGFR^L858R/T790M/C797S) cells, sequence (P00533 whole entry T790M/C797S/L858R): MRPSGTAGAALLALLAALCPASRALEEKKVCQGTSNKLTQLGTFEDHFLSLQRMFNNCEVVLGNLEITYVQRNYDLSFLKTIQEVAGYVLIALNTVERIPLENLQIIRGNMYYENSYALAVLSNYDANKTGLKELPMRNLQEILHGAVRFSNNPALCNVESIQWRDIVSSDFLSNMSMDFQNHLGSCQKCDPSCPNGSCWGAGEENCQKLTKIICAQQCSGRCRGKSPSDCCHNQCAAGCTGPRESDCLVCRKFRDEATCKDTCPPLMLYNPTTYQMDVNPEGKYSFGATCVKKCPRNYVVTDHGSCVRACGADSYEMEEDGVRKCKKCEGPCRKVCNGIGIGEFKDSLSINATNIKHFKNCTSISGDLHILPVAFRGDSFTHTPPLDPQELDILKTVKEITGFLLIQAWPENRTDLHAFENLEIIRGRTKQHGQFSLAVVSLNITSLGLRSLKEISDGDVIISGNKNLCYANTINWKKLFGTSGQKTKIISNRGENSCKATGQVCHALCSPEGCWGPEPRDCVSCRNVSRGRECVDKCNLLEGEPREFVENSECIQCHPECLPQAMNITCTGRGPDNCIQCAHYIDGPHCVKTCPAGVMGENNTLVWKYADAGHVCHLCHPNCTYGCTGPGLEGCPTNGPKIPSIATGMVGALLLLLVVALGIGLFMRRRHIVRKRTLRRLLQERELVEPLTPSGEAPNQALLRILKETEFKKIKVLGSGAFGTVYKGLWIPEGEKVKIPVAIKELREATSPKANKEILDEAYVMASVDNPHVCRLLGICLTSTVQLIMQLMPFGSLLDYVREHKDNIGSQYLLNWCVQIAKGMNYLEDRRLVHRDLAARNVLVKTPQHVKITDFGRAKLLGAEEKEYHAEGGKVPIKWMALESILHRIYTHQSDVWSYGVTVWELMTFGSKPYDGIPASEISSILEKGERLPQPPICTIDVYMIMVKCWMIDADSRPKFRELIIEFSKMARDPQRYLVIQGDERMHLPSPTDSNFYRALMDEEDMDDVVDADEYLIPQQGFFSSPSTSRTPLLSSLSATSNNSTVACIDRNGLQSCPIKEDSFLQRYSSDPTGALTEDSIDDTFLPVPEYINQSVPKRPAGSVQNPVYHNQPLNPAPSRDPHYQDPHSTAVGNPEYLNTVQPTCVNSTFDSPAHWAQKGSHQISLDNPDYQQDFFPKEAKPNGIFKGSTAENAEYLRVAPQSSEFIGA

C=C(F)C(=O)Nc1cc(Nc2ncc(Br)c(Nc3ccc4nccnc4c3NS(C)(=O)=O)n2)c(OC)cc1N1CCC(N2CCN(CCCC#Cc3cccc4c3CN(C3CCC(=O)NC3=O)C4=O)CC2)CC1 (stereo not shown) [Compound D933] and COc1cc(N2CCC(N3CCN(CCCC#Cc4cccc5c4CN(C4CCC(=O)NC4=O)C5=O)CC3)CC2)c(C)cc1Nc1ncc(Br)c(Nc2ccc3nccnc3c2NS(C)(=O)=O)n1 (stereo not shown) [Compound D741, N-(6-((5-bromo-2-((4-(4-(4-(5-(2-(2,6-dioxopiperidin-3-yl)-1-oxoisoindolin-4-yl)pent-4-yn-1-yl)piperazin-1-yl)piperidin-1-yl)-2-methoxy-5-methylphenyl)amino)pyrimidin-4-yl)amino)quinoxalin-5-yl)methanesulfonamide] are within 1.5-fold of each other in GI50: 12.3 nM for the first, 10.2 nM for the second.

COc1cc(N2CCC(N3CCN(CCCC#Cc4cccc5c4CN(C4CCC(=O)NC4=O)C5=O)CC3)CC2)c(NC(=O)/C=C/C(F)(F)F)cc1Nc1ncc(Cl)c(Nc2ccc3c(c2P(C)(C)=O)OCCO3)n1 (stereo not shown) [Compound D684] and C=CC(=O)Nc1cc(Nc2ncc(Cl)c(Nc3ccc4c(c3P(C)(C)=O)OCCO4)n2)c(OC)cc1N1CCC(N2CCN(CCCC#Cc3cccc4c3CN(C3CCC(=O)NC3=O)C4=O)CC2)CC1 (stereo not shown) [Compound D683] are within 1.5-fold of each other in GI50: 24.1 nM for the first, 22.3 nM for the second.

C=C(F)C(=O)Nc1cc(Nc2ncc(Br)c(Nc3ccccc3P(C)(C)=O)n2)c(OCC(F)(F)F)cc1N1CCC(N2CCN(CCCC#Cc3cccc4c3CN(C3CCC(=O)NC3=O)C4=O)CC2)CC1 (stereo not shown) [Compound D846, N-(5-((5-bromo-4-((2-(dimethylphosphoryl)phenyl)amino)pyrimidin-2-yl)amino)-2-(4-(4-(5-(2-(2,6-dioxopiperidin-3-yl)-1-oxoisoindolin-4-yl)pent-4-yn-1-yl)piperazin-1-yl)piperidin-1-yl)-4-(2,2,2-trifluoroethoxy)phenyl)-2-fluoroacrylamide] and C=C(F)C(=O)Nc1cc(Nc2ncc(C(F)(F)F)c(Nc3ccccc3P(C)(C)=O)n2)c(OCC(F)(F)F)cc1N1CCC(N2CCN(CCCC#Cc3cccc4c3CN(C3CCC(=O)NC3=O)C4=O)CC2)CC1 (stereo not shown) [Compound D870, N-(5-((4-((2-(dimethylphosphoryl)phenyl)amino)-5-(trifluoromethyl)pyrimidin-2-yl)amino)-2-(4-(4-(5-(2-(2,6-dioxopiperidin-3-yl)-1-oxoisoindolin-4-yl)pent-4-yn-1-yl)piperazin-1-yl)piperidin-1-yl)-4-(2,2,2-trifluoroethoxy)phenyl)-2-fluoroacrylamide] are within 1.5-fold of each other in GI50: 11.9 nM for the first, 8.87 nM for the second.

COc1cc(N2CCC(N3CCN(CCCC#Cc4cccc5c4CN(C4CCC(=O)NC4=O)C5=O)CC3)CC2)c(NC(=O)/C=C/C(F)(F)F)cc1Nc1ncc(Br)c(Nc2ccccc2P(C)(C)=O)n1 (stereo not shown) [Compound D603, (E)-N-(5-((5-bromo-4-((2-(dimethylphosphoryl)phenyl)amino)pyrimidin-2-yl)amino)-2-(4-(4-(5-(2-(2,6-dioxopiperidin-3-yl)-1-oxoisoindolin-4-yl)pent-4-yn-1-yl)piperazin-1-yl)piperidin-1-yl)-4-methoxyphenyl)-4,4,4-trifluorobut-2-enamide] and CC#CC(=O)Nc1cc(Nc2ncc(Br)c(Nc3ccccc3P(C)(C)=O)n2)c(OC)cc1N1CCC(N2CCN(CCCC#Cc3cccc4c3CN(C3CCC(=O)NC3=O)C4=O)CC2)CC1 (stereo not shown) [Compound D604, N-(5-((5-bromo-4-((2-(dimethylphosphoryl)phenyl)amino)pyrimidin-2-yl)amino)-2-(4-(4-(5-(2-(2,6-dioxopiperidin-3-yl)-1-oxoisoindolin-4-yl)pent-4-yn-1-yl)piperazin-1-yl)piperidin-1-yl)-4-methoxyphenyl)but-2-ynamide] are within 1.5-fold of each other in GI50: 37.1 nM for the first, 44.4 nM for the second.

COc1cc(N2CCC(N3CCN(CCCC#Cc4cccc5c4CN(C4CCC(=O)NC4=O)C5=O)CC3)CC2)c(NC(=O)C=C(C)C)cc1Nc1ncc(Cl)c(Nc2ccccc2P(C)(C)=O)n1 (stereo not shown) [Compound D633, N-(5-((5-chloro-4-((2-(dimethylphosphoryl)phenyl)amino)pyrimidin-2-yl)amino)-2-(4-(4-(5-(2-(2,6-dioxopiperidin-3-yl)-1-oxoisoindolin-4-yl)pent-4-yn-1-yl)piperazin-1-yl)piperidin-1-yl)-4-methoxyphenyl)-3-methylbut-2-enamide] and C=CC(=O)Nc1cc(Nc2ncc(Cl)c(Nc3ccccc3P(C)(C)=O)n2)c(OC)cc1N1CCC(N2CCN(CCCC#Cc3cccc4c3CN(C3CCC(=O)NC3=O)C4=O)CC2)CC1 (stereo not shown) [Compound D481, N-(5-((5-chloro-4-((2-(dimethylphosphoryl)phenyl)amino)pyrimidin-2-yl)amino)-2-(4-(4-(5-(2-(2,6-dioxopiperidin-3-yl)-1-oxoisoindolin-4-yl)pent-4-yn-1-yl)piperazin-1-yl)piperidin-1-yl)-4-methoxyphenyl)acrylamide] are within 1.5-fold of each other in GI50: 56.5 nM for the first, 68.7 nM for the second.

First: C=C(F)C(=O)Nc1cc(Nc2ncc(Cl)c(Nc3ccccc3P(C)(C)=O)n2)c(OC)cc1N1CCC(N2CCN(CCCCCC#Cc3cccc4c3CN(C3CCC(=O)NC3=O)C4=O)CC2)CC1 (stereo not shown) [Compound D554, N-(5-((5-chloro-4-((2-(dimethylphosphoryl)phenyl)amino)pyrimidin-2-yl)amino)-2-(4-(4-(7-(2-(2,6-dioxopiperidin-3-yl)-1-oxoisoindolin-4-yl)hept-6-yn-1-yl)piperazin-1-yl)piperidin-1-yl)-4-methoxyphenyl)-2-fluoroacrylamide]
Second: C=C(F)C(=O)Nc1cc(Nc2ncc(Cl)c(Nc3ccccc3P(C)(C)=O)n2)ccc1N1CCC(N2CCN(CCCC#Cc3cccc4c3CN(C3CCC(=O)NC3=O)C4=O)CC2)CC1 (stereo not shown) [Compound D666, N-(5-((5-chloro-4-((2-(dimethylphosphoryl)phenyl)amino)pyrimidin-2-yl)amino)-2-(4-(4-(5-(2-(2,6-dioxopiperidin-3-yl)-1-oxoisoindolin-4-yl)pent-4-yn-1-yl)piperazin-1-yl)piperidin-1-yl)phenyl)-2-fluoroacrylamide]
The GI50 of the first is 3.3-fold higher: 45.2 nM for the first, 13.7 nM for the second.

C=CC(=O)Nc1cc(Nc2ncc(Br)c(Nc3ccccc3P(C)(C)=O)n2)ccc1N1CCC(N2CCN(CCCCCC#Cc3cccc4c3CN(C3CCC(=O)NC3=O)C4=O)CC2)CC1 (stereo not shown) [Compound D551, N-(5-((5-bromo-4-((2-(dimethylphosphoryl)phenyl)amino)pyrimidin-2-yl)amino)-2-(4-(4-(7-(2-(2,6-dioxopiperidin-3-yl)-1-oxoisoindolin-4-yl)hept-6-yn-1-yl)piperazin-1-yl)piperidin-1-yl)phenyl)acrylamide] and CP(C)(=O)c1ccccc1Nc1nc(Nc2ccc(N3CCC(N4CCN(CCCC#Cc5cccc6c5CN(C5CCC(=O)NC5=O)C6=O)CC4)CC3)c(NC(=O)/C=C/C(F)(F)F)c2)ncc1Cl (stereo not shown) [Compound D667, (E)-N-(5-((5-chloro-4-((2-(dimethylphosphoryl)phenyl)amino)pyrimidin-2-yl)amino)-2-(4-(4-(5-(2-(2,6-dioxopiperidin-3-yl)-1-oxoisoindolin-4-yl)pent-4-yn-1-yl)piperazin-1-yl)piperidin-1-yl)phenyl)-4,4,4-trifluorobut-2-enamide] are within 1.5-fold of each other in GI50: 14.5 nM for the first, 18.1 nM for the second.

C=C(F)C(=O)Nc1cc(Nc2ncc(Cl)c(Nc3ccc4nccnc4c3P(C)(C)=O)n2)c(OC)cc1N1CCC(N2CCN(CCCC#Cc3cccc4c3CN(C3CCC(=O)NC3=O)C4=O)CC2)CC1 (stereo not shown) [Compound D671, N-(5-((5-chloro-4-((5-(dimethylphosphoryl)quinoxalin-6-yl)amino)pyrimidin-2-yl)amino)-2-(4-(4-(5-(2-(2,6-dioxopiperidin-3-yl)-1-oxoisoindolin-4-yl)pent-4-yn-1-yl)piperazin-1-yl)piperidin-1-yl)-4-methoxyphenyl)-2-fluoroacrylamide] and CCCC#CC(=O)Nc1cc(Nc2ncc(C(F)(F)F)c(Nc3ccccc3P(C)(C)=O)n2)c(OC)cc1N1CCC(N2CCN(CCCC#Cc3cccc4c3CN(C3CCC(=O)NC3=O)C4=O)CC2)CC1 (stereo not shown) [Compound D835, N-(5-((4-((2-(dimethylphosphoryl)phenyl)amino)-5-(trifluoromethyl)pyrimidin-2-yl)amino)-2-(4-(4-(5-(2-(2,6-dioxopiperidin-3-yl)-1-oxoisoindolin-4-yl)pent-4-yn-1-yl)piperazin-1-yl)piperidin-1-yl)-4-methoxyphenyl)hex-2-ynamide] are within 1.5-fold of each other in GI50: 14.5 nM for the first, 11.9 nM for the second.

First: COc1cc(N2CCC(N3CCN(CCCCC#Cc4ccc5c(c4)CN(C4CCC(=O)NC4=O)C5=O)CC3)CC2)c(NC(=O)/C=C/C(F)(F)F)cc1Nc1ncc(Cl)c(Nc2ccccc2P(C)(C)=O)n1 (stereo not shown) [Compound D623, N-(5-((5-chloro-4-((2-(dimethylphosphoryl)phenyl)amino)pyrimidin-2-yl)amino)-2-(4-(4-(6-(2-(2,6-dioxopiperidin-3-yl)-1-oxoisoindolin-5-yl)hex-5-yn-1-yl)piperazin-1-yl)piperidin-1-yl)-4-methoxyphenyl)-4,4,4-trifluorobut-2-enamide]
Second: CC#CC(=O)Nc1cc(Nc2ncc(Br)c(Nc3ccccc3P(C)(C)=O)n2)c(OCC(F)(F)F)cc1N1CCC(N2CCN(CCCC#Cc3cccc4c3CN(C3CCC(=O)NC3=O)C4=O)CC2)CC1 (stereo not shown) [Compound D845, N-(5-((5-bromo-4-((2-(dimethylphosphoryl)phenyl)amino)pyrimidin-2-yl)amino)-2-(4-(4-(5-(2-(2,6-dioxopiperidin-3-yl)-1-oxoisoindolin-4-yl)pent-4-yn-1-yl)piperazin-1-yl)piperidin-1-yl)-4-(2,2,2-trifluoroethoxy)phenyl)but-2-ynamide]
The GI50 of the first is 5.6-fold higher: 94.3 nM for the first, 16.9 nM for the second.

CC#CC(=O)Nc1cc(Nc2ncc(Cl)c(Nc3ccccc3P(C)(C)=O)n2)c(OC)cc1N1CCC(N2CCN(C)CC2)CC1 [Comparative compound L521, reference compound] gave a GI50 of 3050 nM.
